Here are results for 20 compounds from patent US20110053907A1, “SUBSTITUTED PYRIMIDINES AND TRIAZINES AND THEIR USE IN CANCER THERAPY” (Auckland UniServices Limited, priority 2008, published 2011).

One data set relates to PI3K isoforms. To be noted: literature; cited from earlier work.
The next data set concerns the target p110α/p85 (Homo sapiens, UniProt P42336). Description: Reversible inhibition of isolated enzyme, lipid kinase assay. Type of data set: biochemical. To be noted: recombinant enzyme, 100 μM ATP, 1 hr, average of two experiments. The protocol:
Compounds were evaluated for their ability to inhibit Class I PI 3-kinase enzymes p110δ/p85, p110α/p85, and p110β/p85. Reaction mixtures comprising 0.1 μg of a recombinant enzyme, 10 μg of L-α-phosphatidylinositol, and 2× Lipid Kinase Buffer (40 mM Tris-HCl, pH 7.4, 200 mM NaCl, 1 mM EDTA), which contains either DMSO only as a control or the test compound in DMSO (the final DMSO concentration is 1%), were activated by the addition of an ATP mix (5 mM MgCl2, 100 μM ATP, and 0.1 μL [γ^33P]ATP). Reactions were incubated at room temperature for 1 hr, and then stopped by the addition of 1M HCl. The lipids were then extracted using a two step procedure. Firstly, 200 μL of chloroform/methanol (1:1) was added, the biphasic reactions mixed and centrifuged briefly, and the inorganic phase was removed and discarded. Following this, 80 μL of methanol:HCl (1:1) was added and the same procedure followed. The organic phase (70 μL) was then transferred to a clean 1.6 mL tube and the reactions were dried using a Speedvac, with no heating, for 30 min. The reactions were spotted onto TLC plates (Merck Ltd) and developed for 1 hr in propanol-1:2 M acetic acid (13:7). The TLC plates were then dried at room temperature and quantified using a phosphorimager (StormImager, Amersham). Nine compound concentrations were used for each test compound to determine its IC50 value. Each experiment was performed twice and the average IC50 value is used herein.

Each structure is given as a SMILES string.

One may read the IC50 as the midpoint of a concentration-inhibition curve. The melting point is the temperature of the solid-liquid transition.

Chain of p110α/p85 (P42336 whole entry): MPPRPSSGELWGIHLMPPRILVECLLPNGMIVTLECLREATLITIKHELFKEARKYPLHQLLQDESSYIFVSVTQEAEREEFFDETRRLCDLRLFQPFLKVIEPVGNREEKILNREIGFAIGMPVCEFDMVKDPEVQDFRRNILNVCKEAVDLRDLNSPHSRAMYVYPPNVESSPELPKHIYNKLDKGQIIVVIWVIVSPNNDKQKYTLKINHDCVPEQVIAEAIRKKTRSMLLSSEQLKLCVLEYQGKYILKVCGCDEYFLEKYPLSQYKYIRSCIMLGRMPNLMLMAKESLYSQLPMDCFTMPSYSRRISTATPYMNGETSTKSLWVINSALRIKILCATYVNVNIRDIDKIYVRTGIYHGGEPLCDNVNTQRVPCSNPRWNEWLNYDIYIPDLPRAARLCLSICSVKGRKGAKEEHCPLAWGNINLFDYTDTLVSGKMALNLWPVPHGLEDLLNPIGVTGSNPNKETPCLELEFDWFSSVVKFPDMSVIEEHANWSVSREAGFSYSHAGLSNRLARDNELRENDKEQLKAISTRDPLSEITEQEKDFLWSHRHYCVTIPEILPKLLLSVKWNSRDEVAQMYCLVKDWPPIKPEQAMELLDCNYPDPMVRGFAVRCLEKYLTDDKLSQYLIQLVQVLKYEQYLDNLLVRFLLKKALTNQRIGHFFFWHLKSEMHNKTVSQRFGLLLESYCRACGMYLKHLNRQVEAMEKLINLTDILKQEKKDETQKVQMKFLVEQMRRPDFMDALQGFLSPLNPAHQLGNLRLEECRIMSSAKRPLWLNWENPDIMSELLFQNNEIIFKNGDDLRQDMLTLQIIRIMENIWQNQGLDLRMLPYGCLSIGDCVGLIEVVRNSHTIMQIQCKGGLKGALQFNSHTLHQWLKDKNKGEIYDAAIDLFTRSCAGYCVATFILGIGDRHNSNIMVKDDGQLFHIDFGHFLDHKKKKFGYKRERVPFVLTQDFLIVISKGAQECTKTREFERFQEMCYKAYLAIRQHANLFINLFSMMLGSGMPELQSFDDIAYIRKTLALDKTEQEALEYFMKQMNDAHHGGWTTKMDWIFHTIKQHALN
Chain of p110α/p85 (P27986 whole entry partner): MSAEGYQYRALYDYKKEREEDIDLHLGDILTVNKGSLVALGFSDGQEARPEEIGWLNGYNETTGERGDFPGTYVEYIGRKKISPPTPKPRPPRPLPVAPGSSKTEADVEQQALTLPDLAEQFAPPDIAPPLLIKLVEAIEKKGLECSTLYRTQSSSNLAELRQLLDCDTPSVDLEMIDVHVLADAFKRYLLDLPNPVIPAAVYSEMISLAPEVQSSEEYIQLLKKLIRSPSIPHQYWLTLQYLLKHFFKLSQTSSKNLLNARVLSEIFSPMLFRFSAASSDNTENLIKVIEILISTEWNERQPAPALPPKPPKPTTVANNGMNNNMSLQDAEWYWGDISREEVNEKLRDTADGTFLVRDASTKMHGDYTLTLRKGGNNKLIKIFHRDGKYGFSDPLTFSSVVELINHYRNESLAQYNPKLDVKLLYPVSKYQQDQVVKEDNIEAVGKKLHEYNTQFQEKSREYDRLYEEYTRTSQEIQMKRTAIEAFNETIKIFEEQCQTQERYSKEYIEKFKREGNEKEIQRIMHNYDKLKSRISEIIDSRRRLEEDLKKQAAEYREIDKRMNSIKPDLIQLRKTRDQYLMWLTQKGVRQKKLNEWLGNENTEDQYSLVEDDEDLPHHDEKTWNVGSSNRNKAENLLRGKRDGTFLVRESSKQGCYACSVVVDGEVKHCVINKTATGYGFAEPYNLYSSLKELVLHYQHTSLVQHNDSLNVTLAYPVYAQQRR

With `O=C1NC(=O)/C(=C\c2ccc3nccnc3c2)S1` [AS605240], the PI3K isoform selectivity result with PI3K isoforms was “γ-selective”. In turn, `COc1cccc2c1nc(C(F)F)n2-c1nc(N[C@@H]2CCN(C(=O)CCl)C2)nc(N2CCOCC2)n1` [Example 29, N-[(3R)-1-(chloroacetyl)pyrrolidinyl]-4-[2-(difluoromethyl)-4-methoxy-1H-benzimidazol-1-yl]-6-(4-morpholinyl)-1,3,5-triazin-2-amine] had a melting point of 208 to 210 °C. The half-inhibitory concentration (IC50) at p110α/p85 is under 100 nM. Taken in the same sequence, the figures for `COc1cccc2c1nc(C(F)F)n2-c1nc(N[C@H]2CCN(C(=O)CCl)C2)nc(N2CCOCC2)n1` [Example 30, N-[(3S)-1-(chloroacetyl)pyrrolidinyl]-4-[2-(difluoromethyl)-4-methoxy-1H-benzimidazol-1-yl]-6-(4-morpholinyl)-1,3,5-triazin-2-amine] were 208 to 211 °C and under 100 nM. Taken in the same sequence, the figures for `COc1cccc2c1nc(C(F)F)n2-c1nc(N2CCOCC2)nc(N(C)[C@@H]2CCN(C(=O)CCl)C2)n1` [Example 31, N-[(3R)-1-(chloroacetyl)pyrrolidinyl]-4-[2-(difluoromethyl)-4-methoxy-1H-benzimidazol-1-yl]-N-methyl-6-(4-morpholinyl)-1,3,5-triazin-2-amine] were 219 to 221 °C and under 100 nM. Taken in the same sequence, the figures for `COc1cccc2c1nc(C(F)F)n2-c1nc(N2CCOCC2)nc(N(C)[C@H]2CCN(C(=O)CCl)C2)n1` [Example 32, N-[(3S)-1-(chloroacetyl)pyrrolidinyl]-4-[2-(difluoromethyl)-4-methoxy-1H-benzimidazol-1-yl]-N-methyl-6-(4-morpholinyl)-1,3,5-triazin-2-amine] were 219 to 221 °C and under 100 nM.

As for `COc1cccc2c1nc(C(F)F)n2-c1nc(N2CCOCC2)nc(N2CCC[C@@H](NC(=O)CCl)C2)n1` [Example 33], the melting point was in the range of 231 to 233 °C. For the same compound, the IC50 at p110α/p85 is under 100 nM. Taken in the same sequence, the figures for `COc1cccc2c1nc(C(F)F)n2-c1nc(N2CCOCC2)nc(N2CCC[C@H](NC(=O)CCl)C2)n1` [Example 34, 2-chloro-N-{(3S)-1-[4-[2-(difluoromethyl)-4-methoxy-1H-benzimidazol-1-yl]-6-(4-morpholinyl)-1,3,5-triazin-2-yl]piperidinyl}acetamide] were 227 to 229 °C and under 100 nM. Taken in the same sequence, the figures for `COc1cccc2c1nc(C(F)F)n2-c1nc(N2CCOCC2)nc(N2CCC[C@@H](N(C)C(=O)CCl)C2)n1` [Example 35, 2-chloro-N-{(3R)-1-[4-[2-(difluoromethyl)-4-methoxy-1H-benzimidazol-1-yl]-6-(4-morpholinyl)-1,3,5-triazin-2-yl]piperidinyl}-N-methylacetamide] were 201 to 203 °C and under 100 nM. Taken in the same sequence, the figures for `COc1cccc2c1nc(C(F)F)n2-c1nc(N[C@@H]2CCCN(C(=O)CCl)C2)nc(N2CCOCC2)n1` [Example 37] were 190 to 192 °C and under 100 nM. As for `COc1cccc2c1nc(C(F)F)n2-c1nc(N2CCOCC2)nc(N2CC(NC(=O)CCl)C2)n1` [Example 41, 2-chloro-N-{1-[4-[2-(difluoromethyl)-4-methoxy-1H-benzimidazol-1-yl]-6-(4-morpholinyl)-1,3,5-triazin-2-yl]-3-azetidinyl}acetamide], the melting point lay in the range of 272 to 275 °C. Moreover, the IC50 at p110α/p85 is under 100 nM. The compound `COc1cccc2c1nc(C(F)F)n2-c1nc(N2CCOCC2)nc(N2CC(N(C)C(=O)CCl)C2)n1` [Example 42, 2-chloro-N-{1-[4-[2-(difluoromethyl)-4-methoxy-1H-benzimidazol-1-yl]-6-(4-morpholinyl)-1,3,5-triazin-2-yl]-3-azetidinyl}-N-methylacetamide] yielded a melting point of 233 to 236 °C. For the same compound, at p110α/p85, the 50% inhibitory concentration (IC50) was under 100 nM. The compound `COc1cccc2c1nc(C(F)F)n2-c1nc(NC2CN(C(=O)CCl)C2)nc(N2CCOCC2)n1` [Example 43, N-[1-(chloroacetyl)-3-azetidinyl]-4-[2-(difluoromethyl)-4-methoxy-1H-benzimidazol-1-yl]-6-(4-morpholinyl)-1,3,5-triazin-2-amine] displayed a melting point of 219 to 221 °C. In addition, the IC50 at p110α/p85 is under 100 nM. Compound `COc1cccc2c1nc(C(F)F)n2-c1nc(N2CCOCC2)nc(N(C)C2CN(C(=O)CCl)C2)n1` [Example 44, N-[1-(chloroacetyl)-3-azetidinyl]-4-[2-(difluoromethyl)-4-methoxy-1H-benzimidazol-1-yl]-N-methyl-6-(4-morpholinyl)-1,3,5-triazin-2-amine] displayed a melting point of 220 to 222 °C. In addition, the IC50 at p110α/p85 was under 100 nM. As to `COc1cccc2c1nc(C(F)F)n2-c1nc(OC2CCN(C(=O)CCl)CC2)nc(N2CCOCC2)n1` [Example 45, 1-[4-{[1-(chloroacetyl)-4-piperidinyl]oxy}-6-(4-morpholinyl)-1,3,5-triazin-2-yl]-2-(difluoromethyl)-4-methoxy-1H-benzimidazole], the melting point lay in the range of 170 to 172 °C. Moreover, the IC50 on p110α/p85 was under 100 nM. Taken in the same sequence, the figures for `COc1cccc2c1nc(C(F)F)n2-c1nc(N2CCOCC2)c2cnn(C3CCN(S(=O)(=O)CCl)CC3)c2n1` [Example 48, 1-{1-[(chloromethyl)sulfonyl]-4-piperidinyl}-6-[2-(difluoromethyl)-4-methoxy-1H-benzimidazol-1-yl]-4-(4-morpholinyl)-1H-pyrazolo[3,4-d]pyrimidine] were 250 to 253 °C and under 100 nM. For the compound `Cc1ccccc1-n1c(Cn2cnc3c(N)ncnc32)nc2cccc(C)c2c1=O` [IC87114], the PI3K isoform selectivity result in the data set on PI3K isoforms is “δ-selective”. Regarding `Oc1cccc(-c2nc(N3CCOCC3)c3oc4ncccc4c3n2)c1` [PI103], the PI3K isoform selectivity entry in the data set with PI3K isoforms is “slightly α-selective”. For the compound `C=CCN(/C=C1/C(=O)O[C@H](COC)[C@@]2(C)C1=C(O)C(=O)C1=C2[C@H](OC(C)=O)C[C@]2(C)C(=O)CC[C@@H]12)CC=C` [PX-866], in the data set with PI3K isoforms, the PI3K isoform selectivity result was “not selective for individual PI3K isoforms” and the “mode of PI3K inhibition (reversible / irreversible)” value is recorded as “irreversible activity”. `Cc1cc(C(C)Nc2ccccc2)c2nc(N3CCOCC3)cc(=O)n2c1` (centres unmarked) [TGX221]: the PI3K isoform selectivity entry with PI3K isoforms is reported as “β-selective”. For the compound `FC(F)c1nc2ccccc2n1-c1nc(N2CCOCC2)nc(N2CCOCC2)n1` [ZSTK474], the PI3K isoform selectivity result with PI3K isoforms is recorded as “non-selective”.
